Measurements published in patent US20160045513A1, “ISOXAZOLE COMPOUND FOR THE TREATMENT OF CANCER” (Novartis AG, priority 2007, published 2016).

How the values were obtained:
Experiment in all cases: cell proliferation, tumor derived cell lines
Format in all cases: cell-based
RPMI8226 = conditions: Homo sapiens, RPMI-8226, Multiple myeloma (MM), 72 or 96 hours exposure
Description: (§1) Thirty-seven cancer derived cell lines are used (BT474, MDA-MB-361, MDA-MB-453, SKBr3, T47D, MCF7, MDA-MB-231, MDA-MB-468, SK-MEL-5, A375, MALME-3M, SK-MEL-28, WM266.4, RPMI8226, U266, BE, Colo205, HCT116, HT29, MAWI, RKO, U87MG, HN5, RPMI-8226, A549, MV522, NCI-H1299, NCI-H460, 41M, A2780, CHI, NCI-N87, SKOV3, PC3, MO7e, GIST882 and Baf3) to test the effect of 5-(2,4-Dihydroxy-5-isopropyl-phenyl)-4-(4-morpholin-4-ylmethyl-phenyl)-isoxazole-3-carboxylic acid ethylamide. Cell lines are commercially available from American Type Culture Collection (ATCC). These cell lines cover the following 12 cancer or tumor types: breast, melanoma, multiple myeloma (MM), colon, glioblastoma, head & neck, leukemia, lung, ovarian, prostate, stomach and gastrointestinal stromal tumour (GIST). After division and medium change, cells from stock culture are seeded on cell plates and cultured for about 18 hours to allow cell growth and attachment before starting the assay. On the first day of the assay, 5-(2,4-Dihydroxy-5-isopropyl-phenyl)-4-(4-morpholin-4-ylmethyl-phenyl)-isoxazole-3-carboxylic acid ethylamide is added to the medium at various concentrations up to […]. Cells are cultured up to 72 or 96 hours and cell proliferation is determined using commercially available cell proliferation kits.
(§2) The cells were continually exposed to 5-(2,4-Dihydroxy-5-isopropyl-phenyl)-4-(4-morpholin-4-ylmethyl-phenyl)-isoxazole-3-carboxylic acid ethylamide for either 72 or 96 hours and cell growth was determined by commercially available kits based on either SRB, Alamar blue, methylene blue or WST-1 methods.

MV522 = conditions: Lung, 72 or 96 hours exposure
Description: as §1, §2

HCT116 = conditions: Homo sapiens, HCT-116, Colon, 72 or 96 hours exposure
Description: as §1, §2

Baf3 = conditions: Mus musculus, Gastrointestinal stromal tumour (GIST), 72 or 96 hours exposure
Description: as §1, §2

CCNC(=O)c1noc(-c2cc(C(C)C)c(O)cc2O)c1-c1ccc(CN2CCOCC2)cc1 [AUY922, 5-(2,4-Dihydroxy-5-isopropyl-phenyl)-4-(4-morpholin-4-ylmethyl-phenyl)-isoxazole-3-carboxylic acid ethylamide]
IC50 (RPMI8226): 36.7 nM
IC50 (MV522): 8.1 nM
IC50 (HCT116): 16 nM
IC50 (Baf3): 22.4 nM
